As usually defined, the pKi is the Ki on a negative log10 scale, so that one unit is a factor of ten. In general, melting point refers to the temperature of the solid-liquid transition.

pKi: −log10 of the molar value.

The subject of data set [1] is capsaicin-induced mechanical allodynia in mice. Description: Effect on capsaicin in development of mechanical allodynia (von Frey filaments). Format: in vivo. To be noted: for antiallodynic effect: mice, capsaicin, von Frey filaments. The method, then:
Effect on Capsaicin in Development of Mechanical Allodynia This model uses the von-Frey Filaments and is a model to test the effects or symptoms of neuropathic pain, allodynia etc. […]. After habituation mice were according to FIG. 1 first treated with the test-compound (or solvent in controls). Then […] (1% DMSO) is injected into their paw resulting in developing pain in the effected paw. The effected paw is then treated with a mechanical stimulus and the latency time before the paw is withdrawn is measured.

In data set [2] the target is T1, σ1-receptor (Cavia porcellus, UniProt Q60492).
T1 construct: guinea pig brains were homogenized; from tissue; host or cells: guinea pig brain membranes
T1 sequence (Q60492 whole entry): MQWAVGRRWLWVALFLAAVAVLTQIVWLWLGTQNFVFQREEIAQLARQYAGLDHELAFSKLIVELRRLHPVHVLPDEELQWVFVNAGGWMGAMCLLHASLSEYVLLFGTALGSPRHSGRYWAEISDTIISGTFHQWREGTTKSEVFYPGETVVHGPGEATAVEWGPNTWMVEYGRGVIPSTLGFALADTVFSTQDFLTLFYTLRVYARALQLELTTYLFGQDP
The data set is described as follows: Sigma-1 receptor binding, [3H](+)-pentazocine, brain membranes. On the set-up: species or system guinea pig. To be noted: for inhibition at 1 µM: 2.5 h, tested compound at 10^-6 M, [3H](+)-pentazocine 0.5 nM, read-out: binding sigma-1 (*) % of radioactively labeled compound replaced by the tested compound; for pKi: [3H](+)-pentazocine, guinea pig brain membranes, read-out: binding sigma-1 Ki.

Data set [3] has as its target T2, σ2-receptor (Mus musculus, UniProt Q8VD00).
T2 construct: brains from sigma receptor type I (sigma-1) knockout mice were homogenized; from tissue; host or cells: brain membranes of sigma-1 knockout mice
T2 sequence (Q8VD00 1-176): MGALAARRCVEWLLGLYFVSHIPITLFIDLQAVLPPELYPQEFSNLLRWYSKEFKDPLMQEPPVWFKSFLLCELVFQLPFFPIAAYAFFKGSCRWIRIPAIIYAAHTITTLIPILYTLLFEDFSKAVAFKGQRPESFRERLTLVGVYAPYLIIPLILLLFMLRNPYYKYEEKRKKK
The data set is described as follows: Sigma-2 receptor binding, [3H]-DTG, brains from sigma-1 knockout mice. Conditions: for inhibition at 1 µM: 2 h, tested compound at 10^-6 M, [3H]-DTG 3 nM, read-out: binding sigma-2 (*) % of radioactively labeled compound replaced by the tested compound; for pKi: [3H]-DTG, sigma-1 knockout mouse brain. The method, then: In brief, brains from sigma receptor type I (sigma-1) knockout mice were homogenized in a volume of 10 mL/g tissue net weight of ice-cold 10 mM Tris-HCl, pH 7.4, containing 320 mM sucrose (Tris-sucrose buffer) with a Potter-Elvehjem homogenizer (10 strokes at 500 r.p.m.) The homogenates were then centrifuged at 1000 g for 10 min at 4° C., and the supernatants were saved. The pellets were resuspended by vortexing in 2 mL/g ice-cold Tris-sucrose buffer and centrifuged again at 1000 g for 10 min. The combined 1000 g supernatants were centrifuged at 31000 g for 15 min at 4° C. The pellets were resuspended by vortexing in 3 mL/g 10 mM Tris-HCl, pH 7.4, and the suspension was kept at 25° C. for 15 min.
The assay tubes contained 10 μL of [^3H]-DTG (final concentration of 3 nM), 400 μL of the tissue suspension (5.3 mL/g in 50 mM Tris-HCl, pH 8.0) to a final assay volume of 0.5 mL. Non-specific binding was defined by addition of a final concentration of 1 μM haloperidol. […] Filters were washed with three times with 5 mL volumes of cold Tris-HCl buffer (10 mM, pH 8.0). Following addition of scintillation cocktail samples were allowed to equilibrate overnight.

Data set [4] concerns carrageenan-induced thermal hyperalgesia in mice. The data set is described as follows: Carrageenan-induced thermal hyperalgesia model (plantar test, Hargreaves). To be noted: for activity in the carrageenan thermal hyperalgesia model: mice, two hours after carrageenan. The class given is in vivo. The method, then:
Some compounds were also evaluated for antinociceptive activity in the carrageenan-induced thermal hyperalgesia model in mice. In this model, two hours after carrageenan injection into the paw, the plantar test was used to assess thermal hyperalgesia according to the method described by Hargreaves et al. (1988). The compounds of Examples 58 and 62.

Data set [5] deals with mechanical allodynia after partial sciatic nerve ligation in mice. Description: Partial sciatic nerve ligation model of neuropathic pain (von Frey test). Format: in vivo. To be noted: 30 mg/kg s.c.; 11-13 days after surgery. An excerpt: The von Frey test was used to assess mechanical allodynia 11-13 days after surgery.
The target of data set [6] is sigma-1 site (Homo sapiens, UniProt Q99720). Conditions: cited from earlier work.
Sequence of sigma-1 site (Q99720 whole entry): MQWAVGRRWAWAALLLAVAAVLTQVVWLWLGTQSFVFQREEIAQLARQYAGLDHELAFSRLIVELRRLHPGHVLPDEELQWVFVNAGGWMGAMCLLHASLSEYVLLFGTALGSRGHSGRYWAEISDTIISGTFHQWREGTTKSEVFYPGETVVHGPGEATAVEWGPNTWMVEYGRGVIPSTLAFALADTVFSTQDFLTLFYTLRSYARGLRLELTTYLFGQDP
The target in data set [7] is sigma-2 site (Homo sapiens, UniProt Q5BJF2). To be noted: cited from earlier work.
Sequence of sigma-2 site (Q5BJF2 whole entry): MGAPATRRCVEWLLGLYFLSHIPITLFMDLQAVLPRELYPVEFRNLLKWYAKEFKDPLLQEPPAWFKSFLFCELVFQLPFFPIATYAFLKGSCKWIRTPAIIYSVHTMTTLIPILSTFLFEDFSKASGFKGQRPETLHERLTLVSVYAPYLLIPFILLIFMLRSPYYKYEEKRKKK

As for `Cn1ncc2c1CCCC2CCN1CCC(c2ccccc2)CC1.O=C(O)C(=O)O` (stereo not shown) [Example 58, 4,5,6,7-tetrahydro-1-methyl-4-(2-(4-phenylpiperidin-1-yl)ethyl)-1H-indazole oxalate], the analgesia is reported as 100% in data set [1] (2 mg/kg), 60% in data set [4] (2.5 mg/kg) and around 90% in data set [4] (10 mg/kg). Moreover, in data set [1], the antiallodynic effect result is reported as “clear antiallodynic effect”. Besides, the inhibition at 1 µM worked out at 106% in data set [2] and 100% in data set [3]. Further, the pKi was 8.96 in data set [2] and 8.20 in data set [3]. Besides, the “activity in the carrageenan thermal hyperalgesia model” value in data set [4] was “highly active”.
The compound `CN(CCC1CCCc2c1cnn2C)Cc1ccccc1.O=C(O)C(=O)O` (stereo not shown) [Example 62, N-benzyl-2-(4,5,6,7-tetrahydro-1-methyl-1H-indazol-4-yl)-N-methylethanamine oxalate] displayed a melting point of 140.2 to 141.7 °C. Besides, the “inhibition of mechanical allodynia” value in data set [5] is “significant inhibition of mechanical allodynia”. Besides, the antiallodynic effect result in data set [1] is “clear antiallodynic effect”. In addition, in data set [2], the inhibition at 1 µM was 104% and the negative-log Ki (pKi) was 7.95. Besides, in data set [3], the inhibition at 1 µM was found to be 93.5% and the negative logarithm of the Ki (pKi) was 7.92. The analgesia in data set [4] (2.5 mg/kg) is recorded as 40%. This compound came in with an analgesia in data set [4] (10 mg/kg) of 75%. In addition, the analgesia in data set [4] (40 mg/kg) was 90%. Further, the “activity in the carrageenan thermal hyperalgesia model” value in data set [4] is on record as “highly active”.
Regarding SKF 10047, the “affinity for the sigma-1 site” value in data set [6] was “nanomolar affinity”. In addition, the “affinity for the sigma-2 site” value in data set [7] was “micromolar affinity”.

Source of the values: patent publication US8394797B2, “Substituted pyrazole sigma receptor antagonists” (Laboratorios Del Dr. Esteve, S.A., priority 2004, dated 2013).
